Measurements from ChEMBL document CHEMBL4428130, “Novel benzoquinoline derivatives via unpredicted condensation of ethyl propiolate and naphthylamines: Synthesis and topoisomerase inhibition activity” (2016).
Activity calls are given as the source filed them. No cut-off for these calls is given here.

Key:
HepG2 = experiment: Growth inhibition of human HepG2 cells after 72 hrs by trypan blue assay; format: functional; conditions: HepG2, 72 h
HeLa = experiment: Growth inhibition of human HeLa cells after 72 hrs by trypan blue assay; format: functional
HL-60 = experiment: Growth inhibition of human HL60 cells after 72 hrs by trypan blue assay; format: functional; conditions: HL-60, 72 h
[1] = molecular target: DNA topoisomerase 2-alpha (Homo sapiens) (UniProt P11388); experiment: Poison activity at human recombinant topoisomerase-2 alpha expressed in Escherichia coli assessed as generation of linear DNA using supercoiled pBR322 DNA at 100 to 200 uM after 60 mins by ethidium bromide staining based agarose gel electrophoresis
Salmon testes DNA = experiment: Binding affinity to Salmon testis DNA assessed as drug-DNA complex formation at drug:DNA ratio of 0.08 at 310 to 380 nanometer by linear flow dichroism method; format: nucleic-acid assay; conditions: Salmonidae
[2] = molecular target: DNA topoisomerase 2-alpha (Homo sapiens) (UniProt P11388); experiment: Inhibition of human recombinant topoisomerase-2 alpha expressed in Escherichia coli assessed as reduction in supercoiled pBR322 DNA relaxation after 60 mins by ethidium bromide staining based agarose gel electrophoresis
[3] = molecular target: DNA topoisomerase 2-alpha (Homo sapiens) (UniProt P11388); experiment: Poison activity at human recombinant topoisomerase-2 alpha expressed in Escherichia coli assessed as generation of linear DNA using supercoiled pBR322 DNA at 8 uM after 60 mins by ethidium bromide staining based agarose gel electrophoresis
[4] = molecular target: DNA topoisomerase 2-alpha (Homo sapiens) (UniProt P11388); experiment: Inhibition of human recombinant topoisomerase-2 alpha expressed in Escherichia coli assessed as reduction in supercoiled pBR322 DNA relaxation at 8 uM after 60 mins by ethidium bromide staining based agarose gel electrophoresis

Sequence of DNA topoisomerase 2-alpha (Homo sapiens) (P11388 whole entry): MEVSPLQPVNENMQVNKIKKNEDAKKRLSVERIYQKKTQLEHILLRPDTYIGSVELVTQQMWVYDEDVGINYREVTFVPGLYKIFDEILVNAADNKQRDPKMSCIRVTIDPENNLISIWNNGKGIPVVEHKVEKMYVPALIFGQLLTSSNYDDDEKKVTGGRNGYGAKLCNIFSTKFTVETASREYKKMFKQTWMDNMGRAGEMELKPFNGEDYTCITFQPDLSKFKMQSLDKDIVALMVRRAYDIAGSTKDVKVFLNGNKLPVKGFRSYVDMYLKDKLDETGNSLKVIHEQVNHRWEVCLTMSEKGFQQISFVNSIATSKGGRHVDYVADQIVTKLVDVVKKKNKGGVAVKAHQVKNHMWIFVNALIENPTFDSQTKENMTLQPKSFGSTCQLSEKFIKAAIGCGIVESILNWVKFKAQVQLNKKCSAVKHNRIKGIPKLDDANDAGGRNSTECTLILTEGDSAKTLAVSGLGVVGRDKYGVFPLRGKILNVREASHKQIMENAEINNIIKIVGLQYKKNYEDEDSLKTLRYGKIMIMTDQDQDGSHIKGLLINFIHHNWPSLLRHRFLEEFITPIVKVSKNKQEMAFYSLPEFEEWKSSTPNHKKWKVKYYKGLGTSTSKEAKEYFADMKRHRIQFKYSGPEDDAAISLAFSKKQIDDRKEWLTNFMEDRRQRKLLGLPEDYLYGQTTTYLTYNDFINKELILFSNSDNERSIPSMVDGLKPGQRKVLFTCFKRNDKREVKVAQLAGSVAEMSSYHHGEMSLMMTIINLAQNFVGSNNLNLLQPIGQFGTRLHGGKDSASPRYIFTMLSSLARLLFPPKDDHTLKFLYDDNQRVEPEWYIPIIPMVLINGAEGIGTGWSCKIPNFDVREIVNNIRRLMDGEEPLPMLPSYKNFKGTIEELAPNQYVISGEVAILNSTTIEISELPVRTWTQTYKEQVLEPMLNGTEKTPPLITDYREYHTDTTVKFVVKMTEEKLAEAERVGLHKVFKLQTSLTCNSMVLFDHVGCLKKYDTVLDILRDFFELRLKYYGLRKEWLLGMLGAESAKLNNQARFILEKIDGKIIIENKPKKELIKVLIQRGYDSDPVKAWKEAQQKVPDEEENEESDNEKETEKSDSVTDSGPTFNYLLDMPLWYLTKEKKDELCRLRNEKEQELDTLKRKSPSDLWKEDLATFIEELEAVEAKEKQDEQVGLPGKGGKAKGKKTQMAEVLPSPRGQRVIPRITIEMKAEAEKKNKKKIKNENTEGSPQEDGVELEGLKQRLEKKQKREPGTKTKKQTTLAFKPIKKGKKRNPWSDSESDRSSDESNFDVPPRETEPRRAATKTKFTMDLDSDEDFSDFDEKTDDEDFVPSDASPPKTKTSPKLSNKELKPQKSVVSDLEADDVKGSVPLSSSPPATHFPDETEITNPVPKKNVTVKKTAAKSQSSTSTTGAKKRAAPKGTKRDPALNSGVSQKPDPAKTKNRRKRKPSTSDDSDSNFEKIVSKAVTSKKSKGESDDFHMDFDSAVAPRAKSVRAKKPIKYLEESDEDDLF

SMILES	GI50 (HepG2)	GI50 (HeLa)	GI50 (HL-60)	Activity [1]	Activity (Salmon testes DNA)	inhibition [2]	Activity [3]	inhibition [4]
CCOC(=O)c1cnc2ccc3ccccc3c2c1	≥ 50 µM	> 50 µM	≥ 50 µM	–	–	–	–	–
CN(C)CCNC(=O)c1cnc2c(ccc3ccccc32)c1	32.2 µM	> 50 µM	29.8 µM	–	–	–	–	–
CN(C)CCN1CCN(C(=O)c2cnc3c(ccc4ccccc43)c2)CC1	> 50 µM	> 50 µM	> 50 µM	–	–	–	–	–
CN(C)CCNC(=O)c1cnc2ccc3ccccc3c2c1	27.8 µM	> 50 µM	24.1 µM	inactive	Active	Dose-dependent effect	–	–
COc1cc(NS(C)(=O)=O)ccc1Nc1c2ccccc2nc2ccccc12	–	–	–	–	–	–	Active	Active
O=C(NCCN1CCOCC1)c1cnc2c(ccc3ccccc32)c1	> 50 µM	> 50 µM	> 50 µM	–	–	–	–	–
CN(C)CCN1CCN(C(=O)c2cnc3c(ccc4cc5c(cc43)OCCO5)c2)CC1	39.4 µM	> 50 µM	33.8 µM	–	–	–	–	–
CN(C)CCN1CCN(C(=O)c2cnc3ccc4ccccc4c3c2)CC1	> 50 µM	> 50 µM	> 50 µM	–	–	–	–	–
O=C(NCCN1CCOCC1)c1cnc2c(ccc3cc4c(cc32)OCCO4)c1	> 50 µM	> 50 µM	32.5 µM	–	–	–	–	–
O=C(NCCN1CCOCC1)c1cnc2ccc3ccccc3c2c1	> 50 µM	> 50 µM	> 50 µM	–	–	–	–	–
CCOC(=O)c1cnc2c(ccc3cc4c(cc32)OCCO4)c1	> 50 µM	> 50 µM	> 50 µM	–	–	–	–	–
CCOC(=O)c1cnc2c(ccc3ccccc32)c1	≥ 50 µM	> 50 µM	> 50 µM	–	–	–	–	–
CN(C)CCNC(=O)c1cnc2c(ccc3cc4c(cc32)OCCO4)c1	> 50 µM	> 50 µM	30 µM	–	–	–	–	–
